In patent US8981094B2, “Piperidine/piperazine derivatives” (Janssen Pharmaceutica N.V., priority 2007, dated 2015):

Experiments:
human DGAT1 = target: T1, human DGAT1 (Homo sapiens, UniProt O75907); experiment: Inhibition of DGAT1 activity, FlashPlate assay with DGAT1 membrane preparations and substrate micelles; format: biochemical; conditions: pIC50 = -logIC50, IC50 values expressed in M
T1 construct: FLAG (N); made in house; host or cells: SF9 insect cells (pFastBac baculovirus); total cell membranes
T1 sequence (O75907 1-488): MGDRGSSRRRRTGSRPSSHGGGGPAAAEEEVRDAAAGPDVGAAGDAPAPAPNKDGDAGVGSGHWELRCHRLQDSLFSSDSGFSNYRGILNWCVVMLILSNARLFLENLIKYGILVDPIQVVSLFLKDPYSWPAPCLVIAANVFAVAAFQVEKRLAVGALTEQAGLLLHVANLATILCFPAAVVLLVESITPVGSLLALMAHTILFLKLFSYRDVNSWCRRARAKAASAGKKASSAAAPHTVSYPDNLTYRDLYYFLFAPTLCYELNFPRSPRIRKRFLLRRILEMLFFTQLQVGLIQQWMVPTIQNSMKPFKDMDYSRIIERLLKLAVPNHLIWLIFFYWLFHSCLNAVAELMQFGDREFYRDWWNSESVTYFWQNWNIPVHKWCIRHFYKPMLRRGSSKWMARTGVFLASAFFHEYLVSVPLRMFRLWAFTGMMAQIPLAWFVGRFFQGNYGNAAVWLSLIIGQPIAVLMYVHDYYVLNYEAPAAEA
How it was run: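 FLAG-tagged human DGAT1 membranes (expressed in Sf9 cells) were incubated 120 min at 37° C. in 50 mM Tris-HCl pH 7.4 with 150 mM MgCl2, 1 mM EDTA, 0.2% BSA, 50 μM DAG micelles (PC/PS) and 8.4 μM [^3H]-oleoylCoA. The reaction was stopped with N-ethylmaleimide and read as FlashPlate radioluminescence. Responses were normalized to enzyme/no-enzyme controls to fit dose-response curves.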

| SMILES | IC50 (human DGAT1) [nM] | melting point [°C] |
| --- | --- | --- |
| O=C(CCCc1ccccc1)Nc1ccc(N2CCN(C(=O)Nc3ccccc3OC(F)(F)F)CC2)cc1 [Compound 84] | 1480 | 162.2 |
| COc1ccc(CNC(=O)c2ccc(N3CCN(C(=O)Nc4c(Cl)cc(CC(=O)N5CCN(C)CC5)cc4Cl)CC3)cc2)cc1 [Compound 228] | 19.1 | 220.01 |
| CC(O)c1cc(Cl)c(NC(=O)N2CCN(c3ccc(N(C)C(=O)CCCc4ccccc4)cc3)CC2)c(Cl)c1 (stereo not drawn) [Compound 335] | 479 | 179.55 |
| CC(O)c1cc(Cl)c(NC(=O)N2CCC(c3ccc(NC(=O)CCCc4ccccc4)cc3)CC2)c(Cl)c1 (stereo not drawn) [Compound 273] | 3.72 | 203 to 204 |
| CC(=O)c1cc(Cl)c(NC(=O)N2CCC(c3ccc(NC(=O)CCCc4ccccc4)cc3)CC2)c(Cl)c1 [Compound 319] | 66.1 | 160 to 161 |
| O=C(CCCc1ccccc1)Nc1ccc(N2CCN(/C=C/C(=O)c3c(Cl)cccc3Cl)CC2)cc1 [Compound 18] | 120 | 178.2 |
| O=C(CCCc1ccccc1)Nc1ccc(C2CCN(C(=O)Nc3c(Cl)cc(C(=O)O)cc3Cl)CC2)cc1 [Compound 301] | 20.9 | 152 to 153 |
| CCOC(=O)c1ccc(CCCCCNC(=O)c2ccc(N3CCN(C(=O)Nc4c(Cl)cc(CN5CCCC5)cc4Cl)CC3)cc2)cc1 [Compound 226] | 9.77 | 180.97 |
| CCC(C)c1ccccc1NC(=O)N1CCN(c2ccc(NC(=O)CCCc3ccccc3)cc2)CC1 (stereo not drawn) [Compound 86] | 1700 | 207.8 |
| Cc1ccccc1NC(=O)N1CCN(c2ccc(NC(=O)CCCc3ccccc3)cc2)CC1 [Compound 96] | 75.9 | 164.7 |
| O=C(CCCc1ccccc1)Nc1ccc(N2CCN(C(=O)Nc3ccccc3F)CC2)cc1 [Compound 94] | 295 | 177.3 |
| O=C(NCc1cccc(N2CCCC2)c1)c1ccc(N2CCN(C(=O)Cc3c(Cl)cccc3Cl)CC2)cc1 [Compound 234] | 50.1 | 251.1 |
| CCOCCNC(=O)c1ccc(N2CCN(C(=O)Cc3c(Cl)cccc3Cl)CC2)cc1 [Compound 262] | 3240 | 175.07 |
| Cc1ccccc1CNC(=O)c1ccc(N2CCN(C(=O)Cc3c(Cl)cccc3Cl)CC2)cc1 [Compound 233] | 50.1 | 244.09 |
| C=CCN(CC(=O)Nc1ccc(N2CCN(C(=O)Nc3c(Cl)cc(OC)cc3OC)CC2)cc1)c1ccc(C)cc1C [Compound 186] | 13.8 | 181 to 182 |
| O=C(CCCc1ccccc1)Nc1ccc(N2CCN(C(=O)Nc3c(F)cc(F)cc3F)CC2)cc1 [Compound 82] | 75.9 | 173.6 |
| O=C(CCCc1ccccc1)Nc1ccc(C2CCN(C(=O)Nc3c(Cl)cc(CO)cc3Cl)CC2)cc1 [Compound 276] | 4.27 | 198 to 199 |
| CC(C)(C)c1ccccc1NC(=O)N1CCN(c2ccc(NC(=O)CCCc3ccccc3)cc2)CC1 [Compound 89] | 2190 | 227.2 |
| COc1ccc(CC(=O)Nc2ccc(N3CCN(C(=O)C(N)c4ccccc4Cl)CC3)cc2)cc1 (stereo not drawn) [Compound 337] | 2450 | – |
| Cc1ccc(CC(=O)Nc2ccc(N3CCN(S(=O)(=O)c4ccccc4C)CC3)cc2)c(C)c1 [Compound 17] | 2240 | – |
| O=C(CC(c1ccc(Cl)cc1)c1ccc(Cl)cc1)c1ccc(N2CCN(C(=O)Nc3c(Cl)cccc3Cl)CC2)cc1 [Compound 162] | 112 | – |

More lines, now with the values ahead:

| IC50 (human DGAT1) [nM] | melting point [°C] | SMILES |
| --- | --- | --- |
| 9.12 | 178 to 179 | COc1ccc(COC(=O)CCCC(=O)Nc2ccc(N3CCN(C(=O)Nc4c(Cl)cc(CN5CCCCC5)cc4Cl)CC3)cc2)cc1 [Compound 285] |
| 6.76 | 227 to 228 | Cc1ccc(NCCC(=O)Nc2ccc(N3CCN(C(=O)Nc4c(Cl)cc(O)cc4Cl)CC3)cc2)c(C)c1 [Compound 280] |
| 24 | 215 to 216 | O=C(CCN(Cc1ccc(F)cc1)S(=O)(=O)c1ccccc1[N+](=O)[O-])Nc1ccc(N2CCN(C(=O)Nc3c(Cl)cccc3Cl)CC2)cc1 [Compound 175] |
| 1.95 | 196.1 | O=C(CCCc1ccccc1)Nc1ccc(N2CCN(C(=O)Nc3c(Cl)cc(CO)cc3Cl)CC2)cc1 [Compound 28] |
| 12.9 | 234.9 | O=C(CCCc1ccccc1)Nc1ccc(N2CCN(C(=O)Nc3c(Cl)cc(Cl)cc3Cl)CC2)cc1 [Compound 59] |
| 75.9 | 183 to 184 | O=C(CNCc1ccc(Cl)cc1)Nc1ccc(N2CCN(C(=O)Nc3c(Cl)cccc3Cl)CC2)cc1 [Compound 178] |
| 4.68 | 183 to 184 | COc1ccc(CC(=O)Nc2ccc(N3CCN(C(=O)Nc4c(Cl)cc(O)cc4Cl)CC3)cc2)cc1 [Compound 16] |
| 23.4 | 125.4 | CC(NCCCN(C)C)c1cc(Cl)c(NC(=O)N2CCN(c3ccc(NC(=O)CCCc4ccccc4)cc3)CC2)c(Cl)c1 (stereo not drawn) [Compound 54] |
| 1070 | 220 to 222 | CC1CCCN1CC(=O)Nc1ccc(N2CCN(C(=O)Nc3c(Cl)cccc3Cl)CC2)cc1 (stereo not drawn) [Compound 179] |
| 1.7 | 224.69 | COc1ccc(CC(=O)Nc2ccc(N3CCN(C(=O)Nc4c(Cl)cc(CN5CCN(S(C)(=O)=O)CC5)cc4Cl)CC3)cc2)cc1 [Compound 268] |
| 87.1 | 254.2 | O=C(CNc1ccc(F)cc1)Nc1ccc(N2CCN(C(=O)Nc3c(Cl)cccc3Cl)CC2)cc1 [Compound 36] |
| 12.6 | 226 to 227 | C=CCN(CCC(=O)Nc1ccc(N2CCN(C(=O)Nc3c(Cl)cccc3Cl)CC2)cc1)c1ccc(C)cc1C [Compound 183] |
| 95.5 | 219.9 | CCOC(=O)CC(=O)Nc1ccc(N2CCN(C(=O)Nc3c(Cl)cccc3Cl)CC2)cc1 [Compound 50] |
| 6920 | 175.2 | CN(C(=O)CCCc1ccccc1)c1ccc(N2CCN(C(=O)Nc3c(Cl)cccc3Cl)CC2)cc1 [Compound 42] |
| 151 | 242.6 | CC(C)(C)OC(=O)NC1(C(=O)Nc2ccc(N3CCN(C(=O)Nc4c(Cl)cccc4Cl)CC3)cc2)CCCC1 [Compound 5] |
| 10.7 | 180 to 181 | O=C(CCCC(=O)OCc1ccccc1)Nc1ccc(N2CCN(C(=O)Nc3c(Cl)cc(CN4CCCCC4)cc3Cl)CC2)cc1 [Compound 292] |

| IC50 (human DGAT1) [nM] | melting point [°C] | SMILES |
| --- | --- | --- |
| 347 | 188 to 189 | COc1ccc(CNCCC(=O)Nc2ccc(N3CCN(C(=O)Nc4c(Cl)cccc4Cl)CC3)cc2)cc1 [Compound 32] |
| 347 | 192 to 193 | O=C(CCNCc1ccc(F)cc1)Nc1ccc(N2CCN(C(=O)Nc3c(Cl)cccc3Cl)CC2)cc1 [Compound 174] |
| 64.6 | 214 to 215 | CN(CC(=O)Nc1ccc(N2CCN(C(=O)Nc3c(Cl)cccc3Cl)CC2)cc1)C(=O)NC(C)(C)C [Compound 165] |
| 145 | 142.1 | O=C(CCCc1ccccc1)Nc1ccc(N2CCN(C(=O)Nc3ccccc3Cl)CC2)cc1 [Compound 34] |
| 29.5 | 206.22 | O=C(CC(=O)OCc1ccccc1)Nc1ccc(N2CCN(C(=O)Nc3c(Cl)cc(CN4CCCC4)cc3Cl)CC2)cc1 [Compound 307] |
| 3630 | 245 to 246 | CN(C)CC(=O)Nc1ccc(N2CCN(C(=O)Nc3c(Cl)cccc3Cl)CC2)cc1 [Compound 200] |
| 28.2 | 253 to 255 | CN(CC(=O)Nc1ccc(N2CCN(C(=O)Nc3c(Cl)cccc3Cl)CC2)cc1)C(=O)Cc1ccccc1 [Compound 171] |
| 1950 | 214 to 216 | O=C(CN1CCCC1)Nc1ccc(N2CCN(C(=O)Nc3c(Cl)cccc3Cl)CC2)cc1 [Compound 201] |
| 63.1 | 232 to 234 | CC(C)C(=O)N(C)CC(=O)Nc1ccc(N2CCN(C(=O)Nc3c(Cl)cccc3Cl)CC2)cc1 [Compound 166] |
| 339 | 263 to 264 | O=C(CCc1ccncc1)Nc1ccc(N2CCN(C(=O)Nc3c(Cl)cccc3Cl)CC2)cc1 [Compound 193] |
| 55 | – | COC(=O)CCCC(=O)Nc1ccc(N2CCN(C(=O)Nc3c(Cl)cccc3Cl)CC2)cc1 [Compound 145] |
| 19.1 | – | CCCCC(=O)Nc1ccc(N2CCN(C(=O)Nc3c(Cl)cccc3Cl)CC2)cc1 [Compound 140] |
| 251 | – | CC1(C)CCN(CC(=O)Nc2ccc(C3CCN(C(=O)Nc4c(Cl)cccc4Cl)CC3)cc2)CC1 [Compound 108] |
| 7.76 | – | CC(C)(C)OC(=O)CC(=O)Nc1ccc(N2CCN(C(=O)Nc3c(Cl)cccc3Cl)CC2)cc1 [Compound 282] |
| 398 | – | O=C(CN1CCN(c2cccc(C(F)(F)F)c2)CC1)Nc1ccc(C2CCN(C(=O)Nc3c(Cl)cccc3Cl)CC2)cc1 [Compound 103] |
